Measurements as given in publication doi:10.1101/2025.02.03.636334v1 (biorxiv, 2025).
In brackets after ≈: the same amount, converted by molar mass.

Tests used:
KasA [1] = molecular target: T1, KasA (Mycobacterium tuberculosis, UniProt P9WQD9); test: KasA-MabA coupled assay, NADPH at […] nm; format: biochemical; conditions: read-out: % inhibition at 25 μM
T1 sequence (P9WQD9 1-416): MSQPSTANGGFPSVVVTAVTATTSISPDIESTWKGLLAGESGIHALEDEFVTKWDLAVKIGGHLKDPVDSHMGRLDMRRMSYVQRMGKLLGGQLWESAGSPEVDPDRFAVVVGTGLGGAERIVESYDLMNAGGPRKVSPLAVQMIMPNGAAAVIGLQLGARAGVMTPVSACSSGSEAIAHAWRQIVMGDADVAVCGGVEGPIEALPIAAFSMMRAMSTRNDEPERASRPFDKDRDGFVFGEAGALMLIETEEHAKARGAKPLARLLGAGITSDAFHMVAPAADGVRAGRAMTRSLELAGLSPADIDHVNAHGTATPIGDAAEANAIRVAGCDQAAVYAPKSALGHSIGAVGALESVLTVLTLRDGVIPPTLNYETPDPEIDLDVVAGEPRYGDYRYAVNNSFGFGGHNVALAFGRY

KasA [2] = molecular target: T1, KasA; test: microscale thermophoresis, RED-NHS labelled KasA; format: binding
M. tuberculosis H37Rv = test: microbe, parasite or virus in culture; conditions: Mycobacterium tuberculosis, 192 h, read-out: Mtb MIC (µM)
KasA [3] = molecular target: T1, KasA; test: biochemical; conditions: read-out: % KasA Inhibition at 25 µM Compound
MabA [4] = molecular target: T2, MabA (Mycobacterium tuberculosis, UniProt P9WGT3); test: biochemical; conditions: read-out: % of control remaining
T2 sequence (P9WGT3 whole entry): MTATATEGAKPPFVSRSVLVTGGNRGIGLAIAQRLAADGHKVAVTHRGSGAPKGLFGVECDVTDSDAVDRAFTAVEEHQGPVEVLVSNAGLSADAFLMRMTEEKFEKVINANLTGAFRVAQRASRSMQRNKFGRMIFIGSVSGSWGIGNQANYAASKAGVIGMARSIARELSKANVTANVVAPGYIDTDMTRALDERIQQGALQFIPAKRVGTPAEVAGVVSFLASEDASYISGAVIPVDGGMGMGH

MabA [5] = molecular target: T2, MabA; test: MabA NADPH oxidation at […] nm; format: biochemical

Compound | inhibition at 25 µM (KasA [1]) [%] | Kd (KasA [2]) [µM] | MIC (M. tuberculosis H37Rv) [µM] | inhibition at 25 µM (KasA [3]) [%] | remaining activity at 25 µM (MabA [4]) [%] | IC50 (MabA [5]) [µM]
O=C(Nc1nc(-c2ccccn2)cs1)c1cc(-c2ccccc2)nc2ccc(Br)cc12 [JSF-5071, 6-bromo-2-phenyl-N-(4-(pyridin-2-yl)thiazol-2-yl)quinoline-4-carboxamide] | 12.7 ± 4.8 | 4.78 ± 1.3 |  |  |  | 
O=C(Nc1nc(-c2ccccn2)cs1)c1cc(-c2ccccc2)nc2ccc(Br)cc12 [Z29466477] |  |  | 0.12 (≈ 0.0585 µg/mL) | 15.3 ± 12.8 | 92.1 ± 16.2 | 
O=C(Nc1ccc(S(=O)(=O)Nc2cccc(C(F)(F)F)c2)cc1)c1cc2ccccc2oc1=O [Z31753778] |  |  | 0.78 (≈ 0.381 µg/mL) | 12 ± 8.8 | 97.9 ± 14.6 | 
O=C(C1=C2SC=C(c3ccccc3)N2CCCC1)c1cc(-c2ccccc2Cl)nc2ccccc12 [Z56802551] |  |  | 12 (≈ 5.94 µg/mL) | 15.6 ± 11.1 | 104 ± 22.4 | 
Cc1ccc(-c2cc(C(=O)N3CCC(C(=O)Nc4ccc5c(c4)OCO5)CC3)c3ccccc3n2)cc1 [Z99494139] |  |  | 1.5 (≈ 0.74 µg/mL) | 11.5 ± 7 | 101 ± 20.4 | 
O=C(Nc1ccc2c(c1)OCO2)C1CCN(C(=O)c2cc(-c3ccc(F)cc3)nc3ccccc23)CC1 [Z99494149] |  |  | 3.1 (≈ 1.54 µg/mL) | 12 ± 8.8 | 95.5 ± 15 | 
O=C(c1cc(-c2ccc(F)cc2)nc2ccccc12)N1CCC(NS(=O)(=O)c2cccs2)CC1 [Z212116604] |  |  | 12 (≈ 5.95 µg/mL) | 14.7 ± 9.6 | 99.4 ± 15 | 
O=C(Nc1nc(-c2cccc(C(F)(F)F)c2)cs1)C1CCN(C(=O)c2ccc(F)cc2)CC1 [Z318114792] |  |  | 12 (≈ 5.73 µg/mL) | 4.72 ± 3 | 102 ± 16.8 | 
O=C(Nc1ccc(O)cc1)C1CCN(C(=O)c2cccc(Oc3cccc(C(F)(F)F)c3)c2)CC1 [Z979305278] |  |  | 12 (≈ 5.81 µg/mL) | 31.2 ± 9.3 | 97.8 ± 16.3 | 
C(=N\Nc1nc(-c2ccccc2)c2ccccc2n1)/c1cccc2cccnc12 [Z1033301210] |  |  | 12 (≈ 4.51 µg/mL) | 46.7 ± 12.5 | 68.4 ± 16.8 | > 100
Clc1ccc(-c2cc(Nc3ccccc3Cl)nc3ccccc23)cc1 [Z1143441182] |  |  | 12 (≈ 4.38 µg/mL) | 13.9 ± 12 | 105 ± 19.7 | 
Cc1ccc(-c2cc(-c3c(O)nc4ccccc4c3-c3ccccc3)nc3ccccc23)cc1 [Z1702969146] |  |  | 12 (≈ 5.26 µg/mL) | 27.1 ± 8.1 | 101 ± 17.6 | 
